Source: patent publication US20150265682A1, “THERAPEUTIC METHODS AND COMPOSITIONS FOR TREATING DIABETES” (Orient Europharma Co., Ltd., priority 2014, published 2015)

Columns and labels:
[1] = tested on: soleus muscle of normal, T1DM and T2DM mice; test: Glycogen content of skeletal muscle (borapetoside C or insulin); assay type: in vivo, ICR mice; details: borapetoside C 5 mg/kg i.p., insulin (Actrapid) 0.5 IU/kg i.p.
Procedure: This study was conducted following the University ethical guidelines on animal experimentation and complied with the Guide for the Care and Use of Laboratory Animals published by the US National Institutes of Health (NIH publication no. 85-23, revised 1996). The animal facility was well controlled for temperature (22±1° C.), and humidity (60±5%) and a 12 h/12 h light-dark cycle was maintained with access to food and water ad libitum. Four-week-old male ICR mice were acquired from BioLasco Taiwan Co., Ltd. and maintained at College of Medicine Experimental Animal Center, National Taiwan University. The study was conducted on 8-10 week-old male ICR mice.
(§1) T1DM mice were induced by a known method. In brief, an intraperitoneal injection of streptozotocin (STZ; Sigma Chemical Co.; St. Louis, Mo.) at 150 mg/kg was performed in mice that were fasted for 48 h. The induction of T1DM was assessed and confirmed when the mice had plasma glucose levels ≧350 mg/dL, accompanied with polyuria, hyperphagia and decreased body weight. The control mice group received an injection of vehicle and then carried out for 4 weeks. T2DM mice were induced by maintaining on a fat-rich chow diet and fructose-sweetened water for 4 weeks from the age of 4-5 weeks according to previous methods. The induction T2DM mice were assessed by measuring fasting plasma glucose levels and confirmed when plasma glucose level was ≧150 mg/dL after a 4-week induction.
(§2) Glycogen content of skeletal muscles was measured by a known method. In brief, mice were injected with borapetoside C (5.0 mg/kg, interperitoneal) for 60 min or insulin (0.5 IU/kg, interperitoneal.) for 30 min, and the soleus muscle was isolated from anesthetized mice. About 40 mg of muscle sample was dissolved in 1 N KOH at 75° C. for 30 min. The dissolved homogenate was neutralized by glacial acetic acid and then incubated overnight in acetate buffer (0.3 M sodium acetate, pH 4.8) containing amyloglucosidase (Sigma, St. Louis, Mo.). The mixture was then neutralized with 1 N NaOH to stop the reaction. The glycogen contents in the tissue samples were determined as μg of glucose per mg of tissue (wet weight).

[2] = tested on: skeletal muscle of normal, T1DM and T2DM mice; test: Glycogen content in skeletal muscle after borapetoside C and insulin; assay type: in vivo, ICR mice; details: for Glycogen content in skeletal muscle: BoC 0.1 mg/kg i.p. 30 min before insulin, 30 min after insulin injection
Procedure: as §1, §2
Both non-diabetic and diabetic mice were subjected to various doses of insulin injections at 30 min after intraperitoneal injections with borapetoside C (0.1 mg/kg) or with the vehicle. The glycogen contents in skeletal muscles were then determined at 30 min after insulin injections (Table 4). The ratios of increased glycogen content in the other groups were normalized to those of vehicle-treated group. The ratio was 119.8%, 125.3%, and 108.5% in normal, T1DM, and T2DM mice of insulin-treated group. In borapetoside C combined with insulin-treated group, it was 130.2%, 162.8%, and 122.6% in normal, T1DM, and T2DM mice. […] The increase of insulin sensitivity by borapetoside C is more prominent in diabetic mice than normal mice. Similarly, plasma glucose reduction in mice treated with insulin and borapetoside A are tested and measured.

IL-6-treated C2C12 cells = test: Glycogen content assay in IL-6-treated (insulin resistant) C2C12 cells; assay type: cell-based; details: 30 minutes; for fold increase of glycogen content: IL-6-treated C2C12
Procedure: The C2C12 skeletal muscle cells were cultured in Dulbecco's modified Eagle's medium (DMEM; Gibco/Invitrogen, Carlsbad, Calif.), and the human hepatocellular carcinoma cell line, Hep3B, was cultured in Roswell Park Memorial Institute medium 1640 (RPMI 1640 medium; Gibco/Invitrogen, Carlsbad, Calif.). Cells were cultured at 37° C. in the humidified incubator supplied with 5% CO2. Culture mediums were supplemented with 4.5 mgmL^−1 glucose, penicillin 100 IUmL^−1, streptomycin 100 μgmL^−1 and 10% fetal bovine serum (Gibco/Invitrogen, Carlsbad, Calif.). Only C2C12 cells were then switched to 2% horse serum for 3 days after reaching the 70% confluence. Myotubes formation was achieved after 4 days of incubation, and the cells were used for subsequent experiments. Culture mediums were replaced by serum free DMEM or RPMI for 24 h before experiments (see e.g., procedure described in Sultan et al., 2006).
C2C12 and Hep3B cells were treated with 1 nM insulin, 100 μM metformin, and the assigned concentration of borapetoside A for 30 minutes. To develop the insulin resistance state of cells, C2C12 cells were incubated with IL-6 at 20 ngmL^−1 for 1 hour. Later, the cells were treated with 1 nM insulin, 100 μM metformin, and the assigned concentration of borapetoside A for 30 minutes. After the assigned treatment, cells were washed twice with phosphate buffered saline (PBS). Glycogen content was measured as previously described, with some modifications (see e.g., Savage et al., 2008). The protein concentrations of the cell lysates were determined by using Pierce BCA Protein Assay Kit (Thermo-Scientific, Rockford, Ill.). The glycogen content of each sample was normalized by total protein.

Row | Compound | Glycogen synthesis in skeletal muscle (glycogen content) ([1]; Normal mice) | Glycogen synthesis in skeletal muscle (glycogen content) ([1]; T1DM mice) | Glycogen synthesis in skeletal muscle (glycogen content) ([1]; T2DM mice) | Glycogen content in skeletal muscle ([2]; Normal mice) | Glycogen content in skeletal muscle ([2]; T1DM mice) | Glycogen content in skeletal muscle ([2]; T2DM mice) | fold increase of glycogen content (IL-6-treated C2C12 cells; 10^−6 mol/L) | fold increase of glycogen content (IL-6-treated C2C12 cells; 10^−7 mol/L) | fold increase of glycogen content (IL-6-treated C2C12 cells; 10^−8 mol/L) | glycogen content (IL-6-treated C2C12 cells; IL-6-induced insulin resistant model, 1 nM insulin) | ratio of glycogen content normalized to vehicle-treated group ([2]; T1DM mice) | ratio of glycogen content normalized to vehicle-treated group ([2]; T2DM mice) | ratio of glycogen content normalized to vehicle-treated group ([2]; normal mice)
1 | COC(=O)C1=CCC[C@H]2[C@]3(C)C[C@@H](c4ccoc4)OC(=O)[C@@H]3C[C@@H](O[C@@H]3O[C@H](CO)[C@@H](O)[C@H](O)[C@H]3O)[C@@]12C [Borapetoside C, borapetoside C] | 25.1 ± 1.3 μg of glucose per mg of tissue (wet weight) | 23.2 ± 0.7 μg of glucose per mg of tissue (wet weight) | 23.3 ± 0.4 μg of glucose per mg of tissue (wet weight) | 32.7 ± 0.7 μg of glucose per mg of tissue (wet weight) | 30.0 ± 1.2 μg of glucose per mg of tissue (wet weight) | 30.7 ± 1.3 μg of glucose per mg of tissue (wet weight) |  |  |  |  |  |  | 
2 | C[C@@]12C[C@@H](c3ccoc3)OC(=O)[C@@H]1C[C@@H]1OC(=O)[C@@]3(O)[C@@H](O[C@@H]4O[C@H](CO)[C@@H](O)[C@H](O)[C@H]4O)CC[C@@H]2[C@@]13C [Borapetoside A, borapetoside A] |  |  |  |  |  |  | 1.64±0.05 fold | 1.38±0.06 fold | 1.35±0.08 fold |  |  |  | 
3 | Insulin: human insulin, Insulin Actrapid HM, a short-acting insulin provided by Novo Nordisk [reference compound] | 30.2 ± 2.0 μg of glucose per mg of tissue (wet weight) | 30.0 ± 1.0 μg of glucose per mg of tissue (wet weight) | 20.2 ± 0.6 μg of glucose per mg of tissue (wet weight) | 38.1 ± 0.3 μg of glucose per mg of tissue (wet weight) | 38.1 ± 2.3 μg of glucose per mg of tissue (wet weight) | 35.5 ± 1.1 μg of glucose per mg of tissue (wet weight) |  |  |  | not increased | 125.3% | 108.5% | 119.8%
